Measured values from patent US10053428B2, “5-aminotetrahydroquinoline-2-carboxylic acids and their use” (BAYER PHARMA AKTIENGESELLSCHAFT, priority 2012, dated 2018).
Read-outs that look alike come from different tables or passages of the source. Values belong to the molecule of their own block, whether it stands above or below them.

What was measured:
[1] = test system: recombinant guanylate cyclase reporter cell line; test: sGC-activating activity in the CHO reporter cell in vitro; assay type: cell-based; settings: read-out: MEC (minimum effective concentration)
Description: B-2. Action at a Recombinant Guanylate Cyclase Reporter Cell Line
The cellular action of the compounds according to the invention is determined at a recombinant guanylate cyclase reporter cell line, as described in F. Wunder et al., Anal. Biochem. 32, 104-112 (2005).

[2] = biological target: T1, haem-free recombinant soluble guanylate cyclase (sGC) (Rattus norvegicus, UniProt P20595); test: Stimulation of recombinant soluble guanylate cyclase (sGC) in vitro, haem-free enzyme; assay type: biochemical
T1 construct: made in house; host or cells: Sf9 insect cells (baculovirus)
T1 sequence (P20595 1-619): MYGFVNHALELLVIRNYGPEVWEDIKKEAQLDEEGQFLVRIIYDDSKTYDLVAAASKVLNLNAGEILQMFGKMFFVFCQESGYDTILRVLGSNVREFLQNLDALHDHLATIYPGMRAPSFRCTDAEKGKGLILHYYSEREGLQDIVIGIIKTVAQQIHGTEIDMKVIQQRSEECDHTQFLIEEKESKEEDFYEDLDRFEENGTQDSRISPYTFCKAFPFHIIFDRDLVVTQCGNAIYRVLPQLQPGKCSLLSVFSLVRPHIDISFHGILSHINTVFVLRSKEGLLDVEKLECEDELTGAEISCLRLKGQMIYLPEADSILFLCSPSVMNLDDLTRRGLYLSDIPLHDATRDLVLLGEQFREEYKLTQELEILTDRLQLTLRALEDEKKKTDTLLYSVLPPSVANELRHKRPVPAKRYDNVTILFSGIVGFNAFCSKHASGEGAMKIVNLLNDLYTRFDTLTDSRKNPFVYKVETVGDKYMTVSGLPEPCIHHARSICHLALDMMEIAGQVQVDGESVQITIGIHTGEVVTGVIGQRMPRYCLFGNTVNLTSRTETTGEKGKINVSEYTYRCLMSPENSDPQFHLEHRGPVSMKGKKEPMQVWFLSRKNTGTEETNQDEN
T1 sequence (P19686 1-690 partner): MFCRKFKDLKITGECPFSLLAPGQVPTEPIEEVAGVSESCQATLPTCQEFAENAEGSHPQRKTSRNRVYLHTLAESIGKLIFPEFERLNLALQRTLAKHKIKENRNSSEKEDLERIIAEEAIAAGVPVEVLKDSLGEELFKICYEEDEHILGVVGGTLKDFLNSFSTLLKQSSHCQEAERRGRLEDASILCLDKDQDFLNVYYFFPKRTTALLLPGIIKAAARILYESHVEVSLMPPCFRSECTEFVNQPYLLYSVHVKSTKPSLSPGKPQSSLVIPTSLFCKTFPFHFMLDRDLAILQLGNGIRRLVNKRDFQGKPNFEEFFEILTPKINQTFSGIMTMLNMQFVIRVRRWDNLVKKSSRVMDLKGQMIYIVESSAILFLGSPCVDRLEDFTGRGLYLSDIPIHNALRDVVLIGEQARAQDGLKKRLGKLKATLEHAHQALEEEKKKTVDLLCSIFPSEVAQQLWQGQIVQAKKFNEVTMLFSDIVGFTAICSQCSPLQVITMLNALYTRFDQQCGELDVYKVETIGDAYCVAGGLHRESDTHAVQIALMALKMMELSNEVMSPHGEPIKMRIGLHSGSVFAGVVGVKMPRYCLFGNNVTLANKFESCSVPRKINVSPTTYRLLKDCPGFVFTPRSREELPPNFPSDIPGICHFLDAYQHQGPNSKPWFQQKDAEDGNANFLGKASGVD
Description: (§1) B-1. Stimulation of Recombinant Soluble Guanylate Cyclase (sGC) In Vitro
(§2) Investigations on the stimulation of recombinant soluble guanylate cyclase (sGC) by the compounds according to the invention with and without sodium nitroprusside, and with and without the haem-dependent sGC inhibitor 1H-1,2,4-oxadiazolo[4,3a]quinoxalin-1-one (ODQ), are carried out by the method described in detail in the following reference: M. Hoenicka, E. M. Becker, H. Apeler, T. Sirichoke, H. Schroeder, R. Gerzer and J.-P. Stasch, “Purified soluble guanylyl cyclase expressed in a baculovirus/Sf9 system: Stimulation by YC-1, nitric oxide, and carbon oxide”, J. Mol. Med 77 (1999), 14-23. The haem-free guanylate cyclase is obtained by adding Tween 20 to the sample buffer (0.5% in the final concentration).
The activation of sGC by a test substance is reported as x-fold stimulation of the basal activity. The result for Example 2 is shown in Table 1A, that for Example 23 in Table 1B and that for Example 39 in Table 1C: […]

[3] = biological target: T2, haem-containing recombinant soluble guanylate cyclase (sGC) (Rattus norvegicus, UniProt P20595); test: Stimulation of recombinant soluble guanylate cyclase (sGC) in vitro, haem-containing enzyme; assay type: biochemical
T2 construct: made in house; host or cells: Sf9 insect cells (baculovirus)
T2 sequence (P20595 1-619): T1 sequence (P20595 1-619)
T2 sequence (P19686 1-690 partner): T1 sequence (P19686 1-690 partner)
Description: as §1, §2
The activation of sGC by a test substance is reported as x-fold stimulation of the basal activity. The result for Example 2 is shown in Table 1A, that for Example 23 in Table 1B and that for Example 39 in Table 1C:
[DEA/NO=2-(N,N-diethylamino)diazenolate 2-oxide; ODQ=1H-1,2,4-oxadiazolo-[4,3a]quinoxalin-1-one].

saphenous artery rings = test: Vasorelaxant effect in vitro (phenylephrine-contracted saphenous artery rings); design: species or system Rabbits; settings: rabbit saphenous artery rings, read-out: IC50 (concentration reducing phenylephrine-induced contraction by 50%)
Description: B-3. Vasorelaxant Effect In Vitro
Rabbits are anaesthetized and sacrificed by intravenous injection of thiopental sodium (about 50 mg/kg) and exsanguinated. The saphenous artery is removed and divided into rings 3 mm wide. The rings are mounted singly on in each case a pair of triangular hooks open at the end and made of 0.3 mm-thick special wire (Remanium®). Each ring is placed under an initial tension in 5 ml organ baths with Krebs-Henseleit solution which is at 37° C., is gassed with carbogen and has the following composition: NaCl 119 mM; KCl 4.8 mM; CaCl2×2 H2O 1 mM; MgSO4×7H2O 1.4 mM; KH2PO4 1.2 mM; NaHCO3 25 mM; glucose 10 mM; bovine serum albumin 0.001%. The force of contraction is detected with Statham UC2 cells, amplified and digitized via A/D converters (DAS-1802 HC, Keithley Instruments, Munich) and recorded in parallel on chart recorders. Contractions are induced by addition of phenylephrine.
After several (generally 4) control cycles, the substance to be investigated is added in each further run in increasing dosage, and the level of the contraction achieved under the influence of the test substance is compared with the level of the contraction reached in the last preceding run. The concentration necessary to reduce the contraction reached in the preceding control by 50% is calculated from this (IC50). The standard application volume is 5 μl. The proportion of DMSO in the bath solution corresponds to 0.1%.

Structure (SMILES): CC(C)(C)c1ccc(COc2ccccc2CCN(CCCCC(=O)O)C2CCCc3nc(C(=O)O)ccc32)cc1 (single isomer, unassigned) [Example 4]
IC50 (saphenous artery rings; Oryctolagus cuniculus): 0.3 nM
minimal effective concentration [1]: 0.5 nM

Structure (SMILES): Cc1ccc2oc(-c3ccc(COc4ccccc4CCN(CCCCC(=O)O)C4CCCc5nc(C(=O)O)ccc54)cc3)nc2c1 (single isomer, unassigned; enantiomer 1) [Example 1, (−)-5-{(4-Carboxybutyl)[2-(2-{[4-(5-methyl-1,3-benzoxazol-2-yl)benzyl]oxy}phenyl)ethyl]-amino}-5,6,7,8-tetrahydroquinoline-2-carboxylic acid (Enantiomer 1)]
IC50 (saphenous artery rings): 571 nM
minimal effective concentration [1]: 160 nM

Structure (SMILES): O=C(O)CCCCN(CCc1ccccc1OCc1ccc(CCc2ccccc2)cc1)C1CCCc2nc(C(=O)O)ccc21 (single isomer, unassigned; enantiomer 1) [Example 13, 5-{(4-Carboxybutyl)[2-(2-{[4-(2-phenylethyl)benzyl]oxy}phenyl)ethyl]amino}-5,6,7,8-tetrahydroquinoline-2-carboxylic acid (Enantiomer 1)]
IC50 (saphenous artery rings): 0.1 nM
minimal effective concentration [1]: 0.3 nM

Continued, in another order:

Stimulation (x-fold), haem-free sGC, basal ([2]; test compound 0.01 μM): 52.5 ± 3.8 x-fold
Stimulation (x-fold), haem-free sGC, basal ([2]; test compound 0.1 μM): 184.3 ± 15.4 x-fold
Stimulation (x-fold), haem-free sGC, basal ([2]; test compound 1.0 μM): 284.7 ± 18.8 x-fold
Stimulation (x-fold), haem-free sGC, basal ([2]; test compound 10 μM): 310.4 ± 22.6 x-fold
Stimulation (x-fold), haem-free sGC, basal ([2]; test compound 100 μM): 342.0 ± 27.6 x-fold
Effect of combination with the NO donor DEA/NO on sGC stimulation [3]: no synergistic effect
Stimulation (x-fold), haem-containing sGC, basal ([3]; test compound 0.01 μM): 8.3 ± 1.1 x-fold
Stimulation (x-fold), haem-containing sGC, +0.1 μM DEA/NO ([3]; test compound 0.01 μM): 24.5 ± 4.4 x-fold
Stimulation (x-fold), haem-containing sGC, +10 μM ODQ ([3]; test compound 0.01 μM): 16.9 ± 3.3 x-fold
Stimulation (x-fold), haem-containing sGC, basal ([3]; test compound 0.1 μM): 54.2 ± 11.9 x-fold
Stimulation (x-fold), haem-containing sGC, +0.1 μM DEA/NO ([3]; test compound 0.1 μM): 77.1 ± 9.2 x-fold
Stimulation (x-fold), haem-containing sGC, +10 μM ODQ ([3]; test compound 0.1 μM): 105.4 ± 18.0 x-fold
Stimulation (x-fold), haem-containing sGC, basal ([3]; test compound 1.0 μM): 108.7 ± 16.3 x-fold
Stimulation (x-fold), haem-containing sGC, +0.1 μM DEA/NO ([3]; test compound 1.0 μM): 155.2 ± 20.7 x-fold
Stimulation (x-fold), haem-containing sGC, +10 μM ODQ ([3]; test compound 1.0 μM): 216.1 ± 28.9 x-fold
Stimulation (x-fold), haem-containing sGC, basal ([3]; test compound 10 μM): 135.7 ± 20.0 x-fold
Stimulation (x-fold), haem-containing sGC, +0.1 μM DEA/NO ([3]; test compound 10 μM): 180.4 ± 22.9 x-fold
Stimulation (x-fold), haem-containing sGC, +10 μM ODQ ([3]; test compound 10 μM): 227.0 ± 31.7 x-fold
Stimulation (x-fold), haem-containing sGC, basal ([3]; test compound 100 μM): 180.5 ± 21.2 x-fold
Stimulation (x-fold), haem-containing sGC, +0.1 μM DEA/NO ([3]; test compound 100 μM): 241.0 ± 34.4 x-fold
Stimulation (x-fold), haem-containing sGC, +10 μM ODQ ([3]; test compound 100 μM): 261.7 ± 32.1 x-fold
Structure (SMILES): O=C(O)c1ccc(CCN(CCc2ccccc2OCc2ccc(-c3ccc(C(F)(F)F)cc3)cc2Cl)C2CCCc3nc(C(=O)O)ccc32)cc1 (single isomer, unassigned; enantiomer 2) [Example 23, 5-{[2-(4-Carboxyphenyl)ethyl][2-(2-{[3-chloro-4′-(trifluoromethyl)biphenyl-4-yl]methoxy}-phenyl)ethyl]amino}-5,6,7,8-tetrahydroquinoline-2-carboxylic acid (Enantiomer 2)]
minimal effective concentration [1]: 0.7 nM

IC50 (saphenous artery rings): 0.2 nM
Structure (SMILES): O=C(O)CCCCN(CCc1ccccc1OCc1ccc(CCc2ccc(F)cc2)cc1)C1CCCc2nc(C(=O)O)ccc21 (single isomer, unassigned) [Example 15]
minimal effective concentration [1]: 0.3 nM

IC50 (saphenous artery rings): 41.8 nM
Structure (SMILES): O=C(O)CCCCN(CCc1ccccc1OCc1ccc(CCc2ccccc2)cc1)C1CCCc2nc(C(=O)O)ccc21 (single isomer, unassigned) [Example 14]
minimal effective concentration [1]: 30 nM

Stimulation (x-fold), haem-free sGC, basal ([2]; test compound 0.01 μM): 39.0 ± 5.8 x-fold
Stimulation (x-fold), haem-free sGC, basal ([2]; test compound 0.1 μM): 176.9 ± 29.9 x-fold
Stimulation (x-fold), haem-free sGC, basal ([2]; test compound 1.0 μM): 284.9 ± 54.5 x-fold
Stimulation (x-fold), haem-free sGC, basal ([2]; test compound 10 μM): 311.5 ± 55.9 x-fold
Stimulation (x-fold), haem-free sGC, basal ([2]; test compound 100 μM): 309.4 ± 54.8 x-fold
Effect of combination with the NO donor DEA/NO on sGC stimulation [3]: no synergistic effect
Stimulation (x-fold), haem-containing sGC, basal ([3]; test compound 0.01 μM): 17.4 ± 2.4 x-fold
Stimulation (x-fold), haem-containing sGC, +0.1 μM DEA/NO ([3]; test compound 0.01 μM): 46.5 ± 2.8 x-fold
Stimulation (x-fold), haem-containing sGC, +10 μM ODQ ([3]; test compound 0.01 μM): 42.0 ± 4.9 x-fold
Stimulation (x-fold), haem-containing sGC, basal ([3]; test compound 0.1 μM): 73.0 ± 7.7 x-fold
Stimulation (x-fold), haem-containing sGC, +0.1 μM DEA/NO ([3]; test compound 0.1 μM): 115.5 ± 11.9 x-fold
Stimulation (x-fold), haem-containing sGC, +10 μM ODQ ([3]; test compound 0.1 μM): 145.6 ± 14.7 x-fold
Stimulation (x-fold), haem-containing sGC, basal ([3]; test compound 1.0 μM): 96.6 ± 8.5 x-fold
Stimulation (x-fold), haem-containing sGC, +0.1 μM DEA/NO ([3]; test compound 1.0 μM): 145.2 ± 15.9 x-fold
Stimulation (x-fold), haem-containing sGC, +10 μM ODQ ([3]; test compound 1.0 μM): 182.5 ± 17.6 x-fold
Stimulation (x-fold), haem-containing sGC, basal ([3]; test compound 10 μM): 108.6 ± 9.0 x-fold
Stimulation (x-fold), haem-containing sGC, +0.1 μM DEA/NO ([3]; test compound 10 μM): 159.4 ± 17.9 x-fold
Stimulation (x-fold), haem-containing sGC, +10 μM ODQ ([3]; test compound 10 μM): 188.7 ± 16.5 x-fold
Stimulation (x-fold), haem-containing sGC, basal ([3]; test compound 100 μM): 143.6 ± 13.4 x-fold
Stimulation (x-fold), haem-containing sGC, +0.1 μM DEA/NO ([3]; test compound 100 μM): 192.1 ± 24.6 x-fold
Stimulation (x-fold), haem-containing sGC, +10 μM ODQ ([3]; test compound 100 μM): 208.5 ± 19.0 x-fold
Structure (SMILES): O=C(O)c1ccc(CCN(CCc2cc(F)ccc2OCc2ccc(-c3nc4cc(Cl)ccc4o3)cc2)C2CCCc3nc(C(=O)O)ccc32)cc1 (single isomer, unassigned; enantiomer 2) [Example 39, 5-{[2-(4-Carboxyphenyl)ethyl][2-(2-{[4-(5-chloro-1,3-benzoxazol-2-yl)benzyl]oxy}-5-fluorophenyl)ethyl]amino}-5,6,7,8-tetrahydroquinoline-2-carboxylic acid (Enantiomer 2)]
minimal effective concentration [1]: 1 nM

IC50 (saphenous artery rings): 15.5 nM
Structure (SMILES): O=C(O)CCCCN(CCc1ccccc1OCc1ccc(CCc2ccc(F)cc2)cc1)C1CCCc2nc(C(=O)O)ccc21 (single isomer, unassigned) [Example 16]
minimal effective concentration [1]: 3 nM
